According to patent US12594293B2, “Use of 6-thio-dG to treat therapy-resistant telomerasepositive pediatric brain tumors” (The Board of Regents of The University of Texas System, priority 2018, dated 2026):

What was measured:
[1] = children with recurrent CNS malignancies; thrombocytopenia that led to bleeding; cited from earlier work
telomerase = assay: Telomerase activity assay (TRAP) in treated HFF+hTERT cells; type: cell-based, human; settings: IMT 2 μM
Protocol: Telomerase activity assay. Telomerase activity was assayed using the TRAPeze Telomerase Detection Kit (Millipore). Cell extracts were prepared according to the manufacturer's protocol. 50-100 ng of total protein was used to assess the telomerase activity by performing polyacrylamide gel (12.5%) electrophoresis.

[2] = tested on: CD138-negative Multiple Myeloma Cancer Stem Cells; settings: cells from bone marrow aspirates of patients with multiple myeloma; cited from earlier work
HFF + hTERT = assay: Cell growth assay (viable cell count, trypan blue exclusion); type: cell-based, human; settings: pre-treated with IMT 2 μM 3 days, then 6-thio-dG 3 μM 3 days
[3] = tested on: CD138-positive and CD138-negative cancer stem cells; settings: by five weeks; cited from earlier work
HFF+hTERT cells = assay: Immunofluorescence and telomere FISH (TIF) assay; type: cell-based, human; settings: for effect on 6-thio-dG-induced TIFs: 10 μM of ATM or 50 nM ATR specific inhibitor 2 hours prior to and with 3 μM 6-thio-dG for 48 hours
Protocol: Immunofluorescence and telomere FISH assay. Cells were fixed with 4% paraformaldehyde (PFA) for 15 minutes. Cells were then washed, permeabilized with 0.5% Triton-X-100 in PBS, blocked with 5% donkey serum and 0.3% Triton X-100 in TBS and incubated with primary antibodies against γH2A.X (1:500, rabbit), or cleaved caspase-3 (1:400, rabbit) (Cell Signaling); and/or TRF2 (1:200) (Mouse; NOVUS), as applicable, for overnight followed by TBST wash (×3) next day. Corresponding secondary antibodies were added (Alexa-Fluor 488- or 594-conjugated donkey anti-rabbit, or anti-mouse (1:500) (Jackson ImmunoResearch) for 1 hour and washed with TBS (×3) before mounting. For telomere-FISH, fixed and permeabilized cells were dehydrated with a graded ethanol concentration series, air-dried and covered with hybridization solution (70% formamide, 0.5% Blocking Reagent (Roche Diagnostics) diluted in 100 mM maleic acid and 150 mM sodium chloride, and 10 mM Tris (pH 7.5)) with 300 ng/mL PNA(CCCTAA)3-Cy3 (SEQ ID NO: 1) (Biosynthesis, USA), and denatured for 6 minutes at 84° C. followed by hybridization for at least two hours at room temperature. Cells were washed three times with 70% formamide and 10 mM Tris (pH 7.5) and three times with TBS. Finally, they were embedded with mounting media with DAPI (Vector Laboratories H1200).

Compound: imetelstat
- tolerability and efficacy of regimen [1]: intolerable and ineffective
- telomerase activity (TRAP assay) (telomerase): inhibition of telomerase activity
- in vitro clonogenic growth [2]: inhibited the in vitro clonogenic growth
- inhibition of cell growth by 6-thio-dG in the combination treatment (HFF + hTERT): markedly reduced
- colony forming potential [3]: eliminated the colony forming potential
- effect on 6-thio-dG-induced TIF formation (HFF+hTERT cells; IMT 2 μM pre-treatment, then 6-thio-dG 3 μM 3 days): inhibited 6-thio-dG-induced TIF formation
- genomic DNA damage (γH2AX foci) in cells treated with 6-thio-dG (HFF+hTERT cells; IMT 2 μM with 6-thio-dG 3 μM 3 days): reduced the genomic DNA damage

Compound: O=c1cc(-c2cccc3c2Sc2ccccc2S3)oc(N2CCOCC2)c1 [ATM inhibitor, reference compound]
- effect on 6-thio-dG-induced TIFs (HFF+hTERT cells): reduction in the number of cells with TIFs

Compound: CNCc1ccc(-c2cc(-c3nc(-c4ccc(S(=O)(=O)C(C)C)cc4)cnc3N)on2)cc1 [ATR inhibitor, reference compound]
- effect on 6-thio-dG-induced TIFs (HFF+hTERT cells): reduction in the number of cells with TIFs
